ChEMBL document CHEMBL1139489, “Design and NMR characterization of active analogues of compstatin containing non-natural amino acids” (J Med Chem, 2005)
Positions of bridges follow the written chain, without caps; N, C: chain ends. Non-standard residues stand in square brackets, D forms with d. Residues, ends and D or L forms follow the SMILES beside them. Abu = CC[C@H](N)C(=O)O

Biological target: Complement C3 (Homo sapiens, UniProt P01024)
Experiment: Inhibitory concentration for human complement component C3 activation

Complement C3, sequence (P01024 23-667 limits assumed): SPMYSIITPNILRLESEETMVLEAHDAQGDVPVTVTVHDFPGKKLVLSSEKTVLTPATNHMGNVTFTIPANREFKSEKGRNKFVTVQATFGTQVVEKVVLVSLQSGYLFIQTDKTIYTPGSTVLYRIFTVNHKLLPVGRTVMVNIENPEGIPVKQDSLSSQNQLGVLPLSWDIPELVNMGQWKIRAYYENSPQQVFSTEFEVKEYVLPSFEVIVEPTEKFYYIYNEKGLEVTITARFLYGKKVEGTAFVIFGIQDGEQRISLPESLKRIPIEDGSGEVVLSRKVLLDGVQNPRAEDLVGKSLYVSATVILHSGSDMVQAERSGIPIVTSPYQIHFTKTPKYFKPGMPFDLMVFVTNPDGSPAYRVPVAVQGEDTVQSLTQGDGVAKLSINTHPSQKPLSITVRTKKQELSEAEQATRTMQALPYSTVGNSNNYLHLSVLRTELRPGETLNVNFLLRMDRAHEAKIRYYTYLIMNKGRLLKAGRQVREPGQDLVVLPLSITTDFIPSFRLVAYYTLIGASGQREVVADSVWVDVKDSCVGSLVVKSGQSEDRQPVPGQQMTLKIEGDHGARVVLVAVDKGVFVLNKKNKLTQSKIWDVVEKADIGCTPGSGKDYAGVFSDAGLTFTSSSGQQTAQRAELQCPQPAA
Complement C3, sequence (P01024 672-1663 limits assumed): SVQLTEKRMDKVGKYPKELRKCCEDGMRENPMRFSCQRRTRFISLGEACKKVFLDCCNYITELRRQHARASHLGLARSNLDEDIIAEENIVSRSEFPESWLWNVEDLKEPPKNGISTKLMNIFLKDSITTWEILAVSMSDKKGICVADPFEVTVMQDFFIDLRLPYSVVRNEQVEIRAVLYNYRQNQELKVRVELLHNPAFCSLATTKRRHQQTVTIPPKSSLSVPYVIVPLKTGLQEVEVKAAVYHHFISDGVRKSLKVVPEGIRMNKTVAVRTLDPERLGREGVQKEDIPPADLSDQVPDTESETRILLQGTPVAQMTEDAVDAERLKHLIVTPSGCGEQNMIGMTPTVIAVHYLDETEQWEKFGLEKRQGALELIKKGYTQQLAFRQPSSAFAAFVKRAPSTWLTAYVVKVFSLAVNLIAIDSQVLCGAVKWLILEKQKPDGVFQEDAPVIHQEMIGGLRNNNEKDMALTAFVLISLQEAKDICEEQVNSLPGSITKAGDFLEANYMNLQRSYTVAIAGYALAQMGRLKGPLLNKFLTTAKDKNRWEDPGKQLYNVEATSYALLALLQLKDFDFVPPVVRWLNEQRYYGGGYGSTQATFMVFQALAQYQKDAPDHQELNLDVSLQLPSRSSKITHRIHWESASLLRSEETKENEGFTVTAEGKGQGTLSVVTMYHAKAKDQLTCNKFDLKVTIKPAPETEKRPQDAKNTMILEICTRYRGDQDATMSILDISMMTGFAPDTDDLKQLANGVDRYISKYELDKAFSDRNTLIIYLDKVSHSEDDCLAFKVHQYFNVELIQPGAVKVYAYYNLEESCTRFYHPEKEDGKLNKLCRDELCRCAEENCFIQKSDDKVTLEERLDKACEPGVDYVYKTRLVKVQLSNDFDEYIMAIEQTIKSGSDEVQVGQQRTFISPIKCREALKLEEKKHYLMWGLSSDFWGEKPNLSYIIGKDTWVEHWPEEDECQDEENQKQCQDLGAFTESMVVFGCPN

For `CC[C@H](C)[C@H](NC(C)=O)C(=O)N[C@H]1CSSC[C@@H](C(=O)N[C@H](C(=O)O)[C@@H](C)O)NC(=O)[C@H](CCCN=C(N)N)NC(=O)[C@H](Cc2c[nH]cn2)NC(=O)[C@H](C)NC(=O)CNC(=O)[C@H](Cc2c[nH]c3ccccc23)NC(=O)[C@H](CC(=O)O)NC(=O)[C@H](CCC(N)=O)NC(=O)[C@H](CC2CCCCC2)NC(=O)[C@H](C(C)C)NC1=O`, which IC50 is on record?
The IC50 was 47.8 µM.

For `CC[C@H](C)[C@H](NC(C)=O)C(=O)N[C@H]1CSSC[C@@H](C(=O)N[C@H](C(N)=O)[C@@H](C)O)NC(=O)[C@H](CCCN=C(N)N)NC(=O)[C@H](Cc2c[nH]cn2)NC(=O)[C@H](C)NC(=O)CNC(=O)[C@H](Cc2c[nH]c3ccccc23)NC(=O)[C@H](CC(=O)O)NC(=O)[C@H](CCC(N)=O)NC(=O)[C@H](C2Cc3ccccc3C2)NC(=O)[C@H](C(C)C)NC1=O`, which IC50 is on record?
Its IC50 is 1.4 µM.

Which IC50 does the source give for `CC[C@H](C)[C@H](NC(C)=O)C(=O)N[C@H]1CSSC[C@@H](C(=O)N[C@H](C(=O)O)[C@@H](C)O)NC(=O)[C@H](CCCN=C(N)N)NC(=O)[C@H](Cc2c[nH]cn2)NC(=O)[C@H](C)NC(=O)CNC(=O)[C@H](Cc2c[nH]c3ccccc23)NC(=O)[C@H](CC(=O)O)NC(=O)[C@H](CCC(N)=O)NC(=O)[C@H](Cc2csc3ccccc23)NC(=O)[C@H](C(C)C)NC1=O` here?
Its IC50 is 0.8 µM.

With `CC[C@H](C)[C@H](NC(C)=O)C(=O)N[C@H]1CSSC[C@@H](C(=O)N[C@H](C(N)=O)[C@@H](C)O)NC(=O)[C@H](CCCNC(=N)N)NC(=O)[C@H](Cc2c[nH]cn2)NC(=O)[C@H](C)NC(=O)CNC(=O)[C@H](Cc2c[nH]c3ccccc23)NC(=O)[C@H](CC(=O)O)NC(=O)[C@H](CCC(N)=O)NC(=O)[C@H](Cc2ccc3ccccc3c2)NC(=O)[C@H](C(C)C)NC1=O` as the compound, how does the IC50 read?
Its IC50 is 0.5 µM.

How did the IC50 turn out when `CC[C@@H]1NC(=O)CNC(=O)[C@H](Cc2c[nH]c3ccccc23)NC(=O)[C@H](CC(=O)O)NC(=O)[C@H](CCC(N)=O)NC(=O)[C@H](Cc2c[nH]c3ccccc23)NC(=O)[C@H](C(C)C)NC(=O)[C@@H](NC(=O)[C@@H](NC(C)=O)[C@@H](C)CC)CSSC[C@@H](C(=O)N[C@H](C(N)=O)[C@@H](C)O)NC(=O)[C@H](CCCN=C(N)N)NC(=O)[C@H](Cc2c[nH]cn2)NC1=O` (Ac-ICVWQDWG[Abu]HRCT-NH2; disulfide 2-12) was run?
The IC50 was 1.5 µM.

`CC[C@H](C)[C@H](NC(C)=O)C(=O)N[C@H]1CSSC[C@@H](C(N)=O)NC(=O)[C@H](CCCN=C(N)N)NC(=O)[C@H](Cc2c[nH]cn2)NC(=O)[C@H](Cc2c[nH]cn2)NC(=O)CNC(=O)[C@H](Cc2c[nH]c3ccccc23)NC(=O)[C@H](CC(=O)O)NC(=O)[C@@H](CCC(N)=O)NC(=O)[C@H](C(C)C)NC(=O)[C@H](C(C)C)NC1=O` was tested. Which IC50 did it give?
The IC50 was greater than 1000 µM.

For `CC[C@H](C)[C@H](NC(C)=O)C(=O)N[C@H]1CSSC[C@@H](C(=O)N[C@H](C(N)=O)[C@@H](C)O)NC(=O)[C@H](CCCNC(=N)N)NC(=O)[C@H](Cc2cnc[nH]2)NC(=O)[C@H](Cc2cnc[nH]2)NC(=O)CNC(=O)[C@H](Cc2c[nH]c3ccccc23)NC(=O)[C@H](CC(=O)O)NC(=O)[C@H](CCC(N)=O)NC(=O)[C@H](Cc2cnc[nH]2)NC(=O)[C@H](C(C)C)NC1=O`, which IC50 is on record?
The IC50 was 10.5 µM.

Which IC50 does the source give for `CC[C@H](C)[C@H](NC(C)=O)C(=O)N[C@H]1CSSC[C@@H](C(=O)N[C@H](C(N)=O)[C@@H](C)O)NC(=O)[C@H](CCCN=C(N)N)NC(=O)[C@H](Cc2c[nH]cn2)NC(=O)[C@H](Cc2c[nH]cn2)NC(=O)CNC(=O)[C@H](Cc2c[nH]c3ccccc23)NC(=O)[C@H](CC(=O)O)NC(=O)[C@H](CCC(N)=O)NC(=O)[C@H](CO)NC(=O)[C@H](C(C)C)NC1=O` here?
Its IC50 is 50.9 µM.

With `CC[C@H](C)[C@H](NC(C)=O)C(=O)N[C@H]1CSSC[C@@H](C(=O)N[C@H](C(=O)O)[C@@H](C)O)NC(=O)[C@H](CCCN=C(N)N)NC(=O)[C@H](Cc2c[nH]cn2)NC(=O)[C@H](C)NC(=O)CNC(=O)[C@H](Cc2c[nH]c3ccccc23)NC(=O)[C@H](CC(=O)O)NC(=O)[C@H](CCC(N)=O)NC(=O)[C@H](Cc2cccc3ccccc23)NC(=O)[C@H](C(C)C)NC1=O` as the compound, how does the IC50 read?
The IC50 was 1.8 µM.

Which IC50 does the source give for `CC[C@H](C)[C@H](NC(C)=O)C(=O)N[C@H]1CSSC[C@@H](C(=O)N[C@H](C(=O)O)[C@@H](C)O)NC(=O)[C@H](CCCN=C(N)N)NC(=O)[C@H](Cc2c[nH]cn2)NC(=O)[C@H](C)NC(=O)CNC(=O)[C@H](Cc2c[nH]c3ccccc23)NC(=O)[C@H](CC(=O)O)NC(=O)[C@H](CCC(N)=O)NC(=O)[C@H](CC2CNc3ccccc32)NC(=O)[C@H](C(C)C)NC1=O` (some centres undefined) here?
The IC50 was 10.2 µM.

Which IC50 does the source give for `CC[C@H](C)[C@H](NC(C)=O)C(=O)N[C@H]1CSSC[C@@H](C(=O)N[C@H](C(N)=O)[C@@H](C)O)NC(=O)[C@H](CCCNC(=N)N)NC(=O)[C@H](Cc2cnc[nH]2)NC(=O)[C@H](C)NC(=O)CNC(=O)[C@H](Cc2c[nH]c3ccccc23)NC(=O)[C@H](CC(=O)O)NC(=O)[C@H](CCC(N)=O)NC(=O)[C@H](C(C)C)NC(=O)[C@H](C(C)C)NC1=O` here?
The IC50 was 12.4 µM.

Which IC50 does the source give for `CC[C@H](C)[C@H](NC(C)=O)C(=O)N[C@H]1CSSC[C@@H](C(=O)N[C@H](C(N)=O)[C@@H](C)O)NC(=O)[C@H](CCCNC(=N)N)NC(=O)[C@H](Cc2c[nH]cn2)NC(=O)[C@H](Cc2c[nH]cn2)NC(=O)CNC(=O)[C@H](Cc2c[nH]c3ccccc23)NC(=O)[C@H](CC(=O)O)NC(=O)[C@H](CCC(N)=O)NC(=O)[C@H](C(C)C)NC(=O)[C@H](C(C)C)NC1=O` here?
The IC50 was 32 µM.

Which IC50 does the source give for `CC[C@H](C)[C@H](NC(C)=O)C(=O)N[C@H]1CSSC[C@@H](C(=O)N[C@H](C(N)=O)[C@@H](C)O)NC(=O)[C@H](CCCN=C(N)N)NC(=O)[C@H](Cc2c[nH]cn2)NC(=O)[C@H](Cc2c[nH]cn2)NC(=O)CNC(=O)[C@H](Cc2c[nH]c3ccccc23)NC(=O)[C@H](CC(=O)O)NC(=O)[C@H](CCC(N)=O)NC(=O)[C@H](Cc2ccccc2)NC(=O)[C@H](C(C)C)NC1=O` here?
Its IC50 is 10.2 µM.

With `CC[C@H](C)[C@H](NC(C)=O)C(=O)N[C@H]1CSSC[C@@H](C(=O)N[C@H](C(N)=O)[C@@H](C)O)NC(=O)[C@H](CCCNC(=N)N)NC(=O)[C@H](Cc2cnc[nH]2)NC(=O)[C@H](C)NC(=O)CNC(=O)[C@H](Cc2c[nH]c3ccccc23)NC(=O)[C@H](CC(=O)O)NC(=O)[C@H](CCC(N)=O)NC(=O)[C@H](Cc2ccc(C(=O)c3ccccc3)cc2)NC(=O)[C@H](C(C)C)NC1=O` as the compound, how does the IC50 read?
Its IC50 is 0.6 µM.

For `CC[C@H](C)[C@H](NC(C)=O)C(=O)N[C@H]1CSSC[C@@H](C(=O)N[C@H](C(=O)O)[C@@H](C)O)NC(=O)[C@H](CCCNC(=N)N)NC(=O)[C@H](Cc2cnc[nH]2)NC(=O)[C@H](C)NC(=O)CNC(=O)[C@H](Cc2c[nH]c3ccccc23)NC(=O)[C@H](CC(=O)O)NC(=O)[C@H](CCC(N)=O)NC(=O)[C@H](C2Cc3ccccc3C2)NC(=O)[C@H](C(C)C)NC1=O`, which IC50 is on record?
The IC50 was 1.5 µM.

`CC[C@H](C)[C@H](NC(C)=O)C(=O)N[C@H]1CSSC[C@@H](C(=O)N[C@H](C(=O)O)[C@@H](C)O)NC(=O)[C@H](CCCNC(=N)N)NC(=O)[C@H](Cc2cnc[nH]2)NC(=O)[C@H](C)NC(=O)CNC(=O)[C@H](Cc2c[nH]c3ccccc23)NC(=O)[C@H](CC(=O)O)NC(=O)[C@H](CCC(N)=O)NC(=O)[C@H](Cc2ccc3ccccc3c2)NC(=O)[C@H](C(C)C)NC1=O` was tested. Which IC50 did it give?
The IC50 was 1.4 µM.

For `CC[C@H](C)[C@H](NC(C)=O)C(=O)N[C@H]1CSSC[C@@H](C(=O)N[C@H](C(N)=O)[C@@H](C)O)NC(=O)[C@H](CCCNC(=N)N)NC(=O)[C@H](Cc2cnc[nH]2)NC(=O)[C@H](Cc2cnc[nH]2)NC(=O)CNC(=O)[C@H](Cc2c[nH]c3ccccc23)NC(=O)[C@H](CC(=O)O)NC(=O)[C@H](CCC(N)=O)NC(=O)[C@H](Cc2c[nH]c3ccccc23)NC(=O)[C@H](C(C)C)NC1=O`, which IC50 is on record?
The IC50 was 2.2 µM.

With `CC[C@H](C)[C@H](NC(C)=O)C(=O)N[C@H]1CSSC[C@@H](C(=O)N[C@H](C(N)=O)[C@@H](C)O)NC(=O)[C@H](CCCNC(=N)N)NC(=O)[C@H](Cc2cnc[nH]2)NC(=O)[C@H](Cc2cnc[nH]2)NC(=O)CNC(=O)[C@H](Cc2c[nH]c3ccccc23)NC(=O)[C@H](CC(=O)O)NC(=O)[C@H](CCC(N)=O)NC(=O)[C@H]([C@@H](C)O)NC(=O)[C@H](C(C)C)NC1=O` as the compound, how does the IC50 read?
The IC50 was 68.3 µM.

`CC[C@H](C)[C@H](NC(=O)[C@@H]1CSSC[C@H](NC(=O)[C@@H](NC(C)=O)[C@@H](C)CC)C(=O)N[C@@H](C(C)C)C(=O)N[C@H](Cc2c[nH]c3ccccc23)C(=O)N[C@@H](CCC(N)=O)C(=O)N[C@@H](CC(=O)O)C(=O)N[C@@H](Cc2c[nH]c3ccccc23)C(=O)NCC(=O)N[C@@H](C)C(=O)N[C@@H](Cc2c[nH]cn2)C(=O)N[C@@H](CCCN=C(N)N)C(=O)N1)C(N)=O` was tested. Which IC50 did it give?
The IC50 was greater than 1000 µM.

For `CC[C@H](C)[C@H](NC(=O)[C@@H]1CSSC[C@H](NC(=O)[C@@H](NC(C)=O)[C@@H](C)CC)C(=O)N[C@@H](C(C)C)C(=O)N[C@H](Cc2ccc(O)cc2)C(=O)N[C@@H](CCC(N)=O)C(=O)N[C@@H](CC(=O)O)C(=O)N[C@@H](Cc2c[nH]c3ccccc23)C(=O)NCC(=O)N[C@@H](C)C(=O)N[C@@H](Cc2c[nH]cn2)C(=O)N[C@@H](CCCN=C(N)N)C(=O)N1)C(N)=O`, which IC50 is on record?
The IC50 was greater than 1000 µM.

`CC[C@H](C)[C@H](NC(C)=O)C(=O)N[C@H]1CSSC[C@@H](C(N)=O)NC(=O)[C@H](CCCN=C(N)N)NC(=O)[C@H](Cc2c[nH]cn2)NC(=O)[C@H](Cc2c[nH]cn2)NC(=O)CNC(=O)[C@@H](Cc2c[nH]c3ccccc23)NC(=O)[C@H](CC(=O)O)NC(=O)[C@H](CCC(N)=O)NC(=O)[C@H](C(C)C)NC(=O)[C@H](C(C)C)NC1=O` was tested. Which IC50 did it give?
Its IC50 is greater than 1000 µM.

How did the IC50 turn out when `CC[C@H](C)[C@H](NC(C)=O)C(=O)N[C@H]1CSSC[C@@H](C(N)=O)NC(=O)[C@H](CCCNC(=N)N)NC(=O)[C@H](Cc2cnc[nH]2)NC(=O)[C@H](Cc2cnc[nH]2)NC(=O)CNC(=O)[C@H](Cc2c[nH]c3ccccc23)NC(=O)[C@@H](CC(=O)O)NC(=O)[C@H](CCC(N)=O)NC(=O)[C@H](C(C)C)NC(=O)[C@H](C(C)C)NC1=O` was run?
The IC50 was greater than 1000 µM.

Which IC50 does the source give for `CC[C@H](C)[C@H](NC(C)=O)C(=O)N[C@H]1CSSC[C@@H](C(=O)N[C@H](C(N)=O)[C@@H](C)O)NC(=O)[C@H](CCCN=C(N)N)NC(=O)[C@H](Cc2c[nH]cn2)NC(=O)[C@H](C)NC(=O)CNC(=O)[C@H](Cc2c[nH]c3ccccc23)NC(=O)[C@H](CC(=O)O)NC(=O)[C@H](CCC(N)=O)NC(=O)[C@H](Cc2ccc(O)cc2)NC(=O)[C@H](C(C)C)NC1=O` here?
The IC50 was 3.8 µM.

How did the IC50 turn out when `CC[C@H](C)[C@H](NC(=O)[C@@H]1CSSC[C@H](NC(=O)[C@@H](NC(C)=O)[C@@H](C)CC)C(=O)N[C@@H](C(C)C)C(=O)N[C@@H](Cc2ccc(OP(=O)(O)O)cc2)C(=O)N[C@@H](CCC(N)=O)C(=O)N[C@@H](CC(=O)O)C(=O)N[C@@H](Cc2c[nH]c3ccccc23)C(=O)NCC(=O)N[C@@H](C)C(=O)N[C@@H](Cc2c[nH]cn2)C(=O)N[C@@H](CCCN=C(N)N)C(=O)N1)C(N)=O` was run?
The IC50 was 9.6 µM.
